Series [1] can be described thus: THC content in infused hop water stored at room temperature. The series is classed as physicochemical. As to conditions: for protection of cannabinoid API against oxidative damage: infused beverage, tocopherols emulsified with cannabis oil, ascorbic acid about 0.5-1 mM in aqueous base.
A short description of series [2]: Color and flavor stability of infused hop water at 37° C. incubation. The class given is physicochemical.
Series [3] in a line: Heat-accelerated (~37° C.) THC stability with aqueous-phase vitamin C and/or EDTA. The series is classed as physicochemical. As to conditions: for THC loss compared to control: vitamin C or EDTA individually, actual hop water base (FIG. 9).
Series [4] in a line: Cannabinoid stability in cold-brewed coffee with tocopherol-containing emulsions. The class given is physicochemical. The conditions noted are these: cold-brewed coffee base (FIG. 5). The text has this:
FIG. 5 is a graph showing quantified THC content when alpha-tocopherol (Vitamin E, VE) was incorporated into our emulsion alongside THC. Alpha-tocopherol (Vitamin E, VE) was incorporated into the emulsion alongside THC.
FIG. 6 is a graph showing cannabinoid stability testing on a cold-brewed coffee product (20× concentrated base and final product) using two different emulsions containing tocopherols (QNE=our in-house Q-naturale+VitE emulsion; NGAO=Nanogen's (a 3rd party emulsion provider) antioxidant formulation).

A short description of series [5]: THC loss in RO water at pH 3.6 vs. neutral pH. The conditions noted are these: 20 mg THC/355 mL, citric acid to pH 3.6 (FIG. 4). The series is classed as physicochemical. The procedure:
FIG. 4 is a graph showing an experiment ruling out pH as a driving factor behind THC loss. Dosed RO water to 20 mg THC/355 mL and used citric acid to pH down to 3.6 (which is the pH of the Infused hop water products) vs. neutral pH (had to bring H2O pH up a bit using sodium carbonate). No difference was observed.

A short description of series [6]: In-house comparison of oxidation rates of emulsified cannabinoids.

The results in this text go back to patent US20240226058A1, “STABILIZED CANNABINOID COMPOSITIONS AND METHODS OF PREPARATION THEREOF” (priority 2020, published 2024).

As for Tocopherols, the “protection of cannabinoid API against oxidative damage” value in series [1] was “not found to suitably mitigate oxidative damage by itself”.
In the case of `O=C1O[C@H]([C@@H](O)CO)C(O)=C1O` [vitamin C, ascorbic acid], the “protection of cannabinoid API against oxidative damage” value in series [1] is “ample protection”. Also, the “THC loss compared to tocopherol-only preparations” value in series [1] (room temperature, after roughly five months) is reported as “negligible amounts of THC loss”. Further, the “color and flavor alterations in the beverage product” value in series [2] (heat-accelerated, 30 days @ ~37° C.) was “strongly protected against unfavorable color and flavor alterations”. Also, in series [2] (infused hop water, 3 weeks at 37° C., EDTA 25 ppm, vitamin C 176 ppm), the “formation of off-colors and flavors” value was “largely prevent formation of off-colors and flavors”. Also, the “antioxidant efficacy between concentrations” value in series [3] (0.5-10 mM vitamin C, infused hop water, 4 weeks heat-accelerated (~9 months at RT) (FIG. 11)) is “little difference”. In series [3] (30 days @ ~37° C., equivalent to ~10 months at room temperature), the “protection to THC” value is listed as “sufficient protection”. Moreover, in series [3] (Vitamin C 176 ppm=1 mM and/or EDTA 25 ppm in aqueous phase, hop terpene-infused base (FIG. 7)), the “THC (cannabinoid) loss” value was “slowed rates of cannabinoid loss”. Moreover, the “concentration of vitamin C concluded sufficient” value in series [3] (infused hop water products (FIG. 11)) is 500 µM. Further, the “THC loss compared to control” value in series [3] is reported as “able to mitigate THC loss compared to control, but did not fully prevent it”.
For `O=C(O)CN(CCN(CC(=O)O)CC(=O)O)CC(=O)O` [EDTA, ethylenediaminetetraacetic acid], in series [3], the “THC loss compared to control” value was “able to mitigate THC loss compared to control, but did not fully prevent it”.
Regarding `Cc1c(C)c2c(c(C)c1O)CC[C@@](C)(CCC[C@H](C)CCC[C@H](C)CCCC(C)C)O2` [Alpha-tocopherol, alpha-tocopherol], the “THC content, emulsion formulated with vs without Vitamin E” value in series [4] was “no appreciable difference”.
With `CCCCCc1cc(O)c2c(c1)OC(C)(C)c1ccc(C)cc1-2` [CBN, cannabinol], the “Maximal CBN levels observed” value in series [1] (room temperature infused hop water samples (FIG. 2)) is “about 20 % of the original THC content”.
For the compound `CCCCCc1cc(O)c2c(c1)OC(C)(C)[C@@H]1CCC(C)=C[C@@H]21` [THC, Δ^9-tetrahydrocannabinol, reference compound], the “rate of THC loss” value in series [1] (infused hop water beverages, room temperature, no antioxidants added, linear (FIG. 1)) is “roughly −0.35 % THC per day”. For the same compound, the “THC loss, pH 3.6 vs neutral pH” value in series [5] is “No difference”. Besides, the “rate of THC loss in high dissolved oxygen (DO) samples” value in series [3] (aerated samples, shaken with air exposure (FIG. 8)) was “fastest rate of THC loss”. Further, the “rate of THC loss with intentional increase in DO levels” value in series [3] (heat-accelerated, three emulsion formulations (FIG. 10)) is “faster rates of loss”. In series [6], the “rate of oxidation compared to CBD” value was “drastically faster rates of oxidation”.
